Data as given in ChEMBL document CHEMBL1131594, “Stereoisomers of cyclic urea HIV-1 protease inhibitors: synthesis and binding affinities” (J Med Chem, 1998).

Target: Human immunodeficiency virus type 1 protease (Human immunodeficiency virus 1, UniProt Q72874)
Assay: Compound was tested for binding affinity against HIV-1 protease.

Row | Structure (SMILES) | Ki [nM]
1 | O=C1N(Cc2ccccc2)[C@@H](Cc2ccccc2)[C@H](O)[C@@H](O)[C@H](Cc2ccccc2)N1Cc1ccccc1 | 560
2 | O=C1N(Cc2ccccc2)[C@H](Cc2ccccc2)[C@H](O)[C@@H](O)[C@@H](Cc2ccccc2)N1Cc1ccccc1 | 3.6
3 | O=C1N(Cc2ccccc2)[C@H](Cc2ccccc2)[C@@H](O)[C@H](O)[C@@H](Cc2ccccc2)N1Cc1ccccc1 | 1350
4 | O=C1N(Cc2ccccc2)[C@@H](Cc2ccccc2)[C@H](O)[C@H](O)[C@H](Cc2ccccc2)N1Cc1ccccc1 | 1710
5 | O=C1N(Cc2ccccc2)[C@H](Cc2ccccc2)[C@H](O)[C@@H](O)[C@H](Cc2ccccc2)N1Cc1ccccc1 | 64
6 | O=C1N(Cc2ccccc2)[C@H](Cc2ccccc2)[C@H](O)[C@H](O)[C@H](Cc2ccccc2)N1Cc1ccccc1 | 250
7 | O=C1N(Cc2ccccc2)[C@H](Cc2ccccc2)[C@@H](O)[C@H](O)[C@H](Cc2ccccc2)N1Cc1ccccc1 | 6700
8 | O=C1N(Cc2ccccc2)[C@@H](Cc2ccccc2)[C@@H](O)[C@H](O)[C@H](Cc2ccccc2)N1Cc1ccccc1 | 3810
